Measurements taken from patent US10961202B2, “Bis-benzimidazole compounds and methods of using the same” (THE SCRIPPS RESEARCH INSTITUTE, priority 2017, dated 2021).

Test system: r(CUG)12-MBNL1 complex
Experiment: Inhibition of the r(CUG)12-MBNL1 complex measured by TR-FRET
Assay type: biochemical
Conditions: Table M; 80 nM RNA, 60 nM MBNL1-His6

| SMILES | IC50 |
| --- | --- |
| C#CCCCNC(=O)CCCOc1ccc2[nH]c(-c3ccc(-c4nc5cc(OCCCN(C)C)ccc5[nH]4)cc3)nc2c1 [Compound 322] | 39.8 µM |
| C#CCCCCNC(=O)CCCOc1ccc2[nH]c(-c3ccc(-c4nc5cc(OCCCN(C)C)ccc5[nH]4)cc3)nc2c1 [Compound 323] | 20.3 µM |
| COCCn1c(-c2ccc(-c3nc4cc(OCCCN(C)C)ccc4[nH]3)cc2)nc2cc(OCCCN(C)C)ccc21 [Compound 329] | > 200 µM |
| COCCn1c(-c2ccc(-c3nc4ccc(OCCCN(C)C)cc4[nH]3)cc2)nc2ccc(OCCCN(C)C)cc21 [Compound 330] | 132 µM |
| CN(C)CCCOc1cc2[nH]c(-c3cc(F)c(-c4nc5cc(F)c(OCCCN(C)C)cc5[nH]4)cc3F)nc2cc1F [Compound 331] | 3.11 µM |
| CCCOc1cc(-c2nc3cc(OCCCN(C)C)ccc3[nH]2)c(OCCC)cc1-c1nc2cc(OCCCN(C)C)ccc2[nH]1 [Compound 332] | 27.2 µM |
| CCCCOc1cc(-c2nc3cc(OCCCN(C)C)ccc3[nH]2)c(OCCCC)cc1-c1nc2cc(OCCCN(C)C)ccc2[nH]1 [Compound 333] | 46.9 µM |
| CN1CCC(Oc2ccc(-c3nc4cc(-c5ccc6[nH]c(-c7ccc(OC8CCN(C)CC8)cc7)nc6c5)ccc4[nH]3)cc2)CC1 [Compound 335] | 22.6 µM |
| CN1C2CCC1CC(NC(=O)c1ccc(-c3nc4cc(-c5ccc6[nH]c(-c7ccc(C(=O)NC8CC9CCC(C8)N9C)cc7)nc6c5)ccc4[nH]3)cc1)C2 (stereo not drawn) [Compound 341] | 5.32 µM |
| O=C(N[C@H]1CN2CCC1CC2)c1ccc(-c2nc3cc(-c4ccc5[nH]c(-c6ccc(C(=O)N[C@H]7CN8CCC7CC8)cc6)nc5c4)ccc3[nH]2)cc1 [Compound 342] | 4.38 µM |
| CN1CCN(CCNC(=O)c2ccc(-c3nc4cc(-c5ccc6[nH]c(-c7ccc(C(=O)O)cc7)nc6c5)ccc4[nH]3)cc2)CC1 [Compound 343] | 73.2 µM |
| CN1CCC(NC(=O)c2ccc(-c3nc4cc(-c5ccc6[nH]c(-c7ccc(C(=O)O)cc7)nc6c5)ccc4[nH]3)cc2)CC1 [Compound 344] | 154 µM |
| CN(C)CCNC(=O)c1ccc(-c2nc3cc(-c4ccc5[nH]c(-c6ccc(C(=O)NCCN(C)CCCCc7cn(CCCNC(=O)CCC(=O)NCCCN=[N+]=[N-])nn7)cc6)nc5c4)ccc3[nH]2)cc1 [Compound 345] | 33.5 µM |
| CCN(CC)C(=O)COc1ccc(-c2nc3cc(-c4ccc5[nH]c(-c6ccc(OCC(=O)N(CC)CC)cc6)nc5c4)ccc3[nH]2)cc1 [Compound 349] | > 200 µM |
| c1cc(-c2nc3cc(-c4ccc5[nH]c(-c6ccc(OCCN7CCOCC7)cc6)nc5c4)ccc3[nH]2)ccc1OCCN1CCOCC1 [Compound 351] | ≥ 200 µM |
| CN(C)CCOc1ccc(-c2nc3cc(-c4ccc5[nH]c(-c6cccc(OCCN(C)C)c6)nc5c4)ccc3[nH]2)cc1 [Compound 355] | 11.2 µM |
| CN1CCCCC1COc1ccc(-c2nc3cc(-c4ccc5[nH]c(-c6ccc(OCC7CCCCN7C)cc6)nc5c4)ccc3[nH]2)cc1 (stereo not drawn) [Compound 359] | 65.5 µM |
| Cc1cc(-c2nc3cc(-c4ccc5[nH]c(-c6cc(C)c(OCCCN(C)C)c(C)c6)nc5c4)ccc3[nH]2)cc(C)c1OCCCN(C)C [Compound 360] | 21.2 µM |
| Cc1cc(-c2nc3cc(-c4ccc5[nH]c(-c6cc(C)c(OCCCN(C)C)c(C)c6)nc5c4)ccc3[nH]2)cc(C)c1O [Compound 361] | 9.64 µM |
| CN(C)CCCCOc1ccc(-c2nc3cc(-c4ccc5[nH]c(-c6ccc(OCCCCN(C)C)cc6)nc5c4)ccc3[nH]2)cc1 [Compound 362] | 29 µM |
| CN(C)CCCCOc1ccc(-c2nc3cc(-c4ccc5[nH]c(-c6ccc(O)cc6)nc5c4)ccc3[nH]2)cc1 [Compound 363] | 18.7 µM |
| Cc1cc(-c2nc3cc(-c4ccc5[nH]c(-c6ccc(OCCCN(C)C)c(C)c6)nc5c4)ccc3[nH]2)ccc1OCCCN(C)C [Compound 364] | 7.64 µM |
| Cc1cc(-c2nc3cc(-c4ccc5[nH]c(-c6ccc(OCCCN(C)C)c(C)c6)nc5c4)ccc3[nH]2)ccc1O [Compound 365] | 9.84 µM |
| CN1C(C)(C)CC(Oc2ccc(-c3nc4cc(-c5ccc6[nH]c(-c7ccc(OC8CC(C)(C)N(C)C(C)(C)C8)cc7)nc6c5)ccc4[nH]3)cc2)CC1(C)C [Compound 366] | > 200 µM |
| CN(C)CCOCCOc1ccc(-c2nc3cc(-c4ccc5[nH]c(-c6ccc(OCCOCCN(C)C)cc6)nc5c4)ccc3[nH]2)cc1 [Compound 367] | 21.5 µM |
| CN(C)CCOCCOc1ccc(-c2nc3cc(-c4ccc5[nH]c(-c6ccc(O)cc6)nc5c4)ccc3[nH]2)cc1 [Compound 368] | 18 µM |
| CN(C)CC(CN(C)C)Oc1ccc(-c2nc3cc(-c4ccc5[nH]c(-c6ccc(OC(CN(C)C)CN(C)C)cc6)nc5c4)ccc3[nH]2)cc1 [Compound 369] | > 200 µM |

Results, then the molecule that gave them:

| IC50 | SMILES |
| --- | --- |
| 82.3 µM | CN(C)CC(CN(C)C)Oc1ccc(-c2nc3cc(-c4ccc5[nH]c(-c6ccc(O)cc6)nc5c4)ccc3[nH]2)cc1 [Compound 370] |
| > 200 µM | CN(C)CCCOc1c(C(C)(C)C)cc(-c2nc3cc(-c4ccc5[nH]c(-c6cc(C(C)(C)C)c(O)c(C(C)(C)C)c6)nc5c4)ccc3[nH]2)cc1C(C)(C)C [Compound 372, 2,6-di-tert-butyl-4-(2′-(3,5-di-tert-butyl-4-(3-(dimethylamino)propoxy)phenyl)-1H,1′H-[5,5′-bibenzo[d]imidazol]-2-yl)phenol] |
| 29.2 µM | CN1CC[C@@H](Oc2ccc(-c3nc4cc(-c5ccc6[nH]c(-c7ccc(O[C@@H]8CCN(C)C8)cc7)nc6c5)ccc4[nH]3)cc2)C1 [Compound 373] |
| 12.8 µM | CN1CC[C@@H](Oc2ccc(-c3nc4cc(-c5ccc6[nH]c(-c7ccc(O)cc7)nc6c5)ccc4[nH]3)cc2)C1 [Compound 374] |
| 69.5 µM | CN(C)CC(C)(C)COc1ccc(-c2nc3cc(-c4ccc5[nH]c(-c6ccc(OCC(C)(C)CN(C)C)cc6)nc5c4)ccc3[nH]2)cc1 [Compound 376] |
| 17.3 µM | NCCCOc1ccc(-c2nc3cc(-c4ccc5[nH]c(-c6ccc(OCCCN)cc6)nc5c4)ccc3[nH]2)cc1 [Compound 378] |
| 28.8 µM | [N-]=[N+]=NCCCOc1ccc(-c2nc3cc(-c4ccc5[nH]c(-c6ccc(OCCCN)cc6)nc5c4)ccc3[nH]2)cc1 [Compound 379] |
| 16.7 µM | NCCCOc1ccc(-c2nc3cc(-c4ccc5[nH]c(-c6ccc(O)cc6)nc5c4)ccc3[nH]2)cc1 [Compound 380] |
| 49.9 µM | CN(C)CCSc1ccc(-c2nc3cc(-c4ccc5[nH]c(-c6ccc(SCCN(C)C)cc6)nc5c4)ccc3[nH]2)cc1 [Compound 381] |
| 17.4 µM | CN(C)CCNC(=O)c1ccc(-c2nc3cc(-c4ccc5[nH]c(-c6ccc(OCCN(C)C)cc6)nc5c4)ccc3[nH]2)cc1 [Compound 382] |
| 41.6 µM | CN(C)CCCSc1ccc(-c2nc3cc(-c4ccc5[nH]c(-c6ccc(SCCCN(C)C)cc6)nc5c4)ccc3[nH]2)cc1 [Compound 383] |
| 31.2 µM | CN(C)CCCCc1ccc(-c2nc3cc(-c4ccc5[nH]c(-c6ccc(CCCCN(C)C)cc6)nc5c4)ccc3[nH]2)cc1 [Compound 385] |
| 46.4 µM | CN(C)CCC#Cc1ccc(-c2nc3cc(-c4ccc5[nH]c(-c6ccc(C#CCCN(C)C)cc6)nc5c4)ccc3[nH]2)cc1 [Compound 386] |
| 8.86 µM | CN(C)CCCSc1ccc(-c2nc3cc(-c4ccc5[nH]c(-c6ccc(C(=O)NCCN(C)C)cc6)nc5c4)ccc3[nH]2)cc1 [Compound 387] |
| 30.2 µM | C[C@H](CN(C)C)NC(=O)c1ccc(-c2nc3cc(-c4ccc5[nH]c(-c6ccc(C(=O)N[C@H](C)CN(C)C)cc6)nc5c4)ccc3[nH]2)cc1 [Compound 388] |
